From ChEMBL document CHEMBL1126754, “Hydroxyurea derivatives as hypoglycemic agents” (1993)

Tests used:
[1] = system: Mus musculus; experiment: In vivo ability to lower blood glucose in the ob/ob mouse model at a dose of 5 mg/kg; assay type: functional
[2] = system: 3T3-L1; experiment: Effect on GLUT 1 glucose transporter expression in 3T3-L1 adipocytes at dose of 0.3 uM; assay type: functional, Mus musculus
[3] = system: 3T3-L1; experiment: Effect on GLUT 1 glucose transporter expression in 3T3-L1 adipocytes at dose of 3 uM; assay type: functional, Mus musculus
[4] = system: Mus musculus; experiment: In vivo ability to lower blood glucose in the ob/ob mouse model at a dose of 1 mg/kg; assay type: functional
[5] = system: Mus musculus; experiment: In vivo ability to lower blood glucose in the ob/ob mouse model at a dose of 10 mg/kg; assay type: functional
[6] = system: Mus musculus; experiment: In vivo ability to lower blood glucose in the ob/ob mouse model at a dose of 25 mg/kg; assay type: functional
[7] = system: 3T3-L1; experiment: Effect on GLUT 1 glucose transporter expression in 3T3-L1 adipocytes at dose of 30 uM; assay type: functional, Mus musculus

Structure (SMILES)	Glucose normalisation [1] [%]	Effect [2] [%]	Effect [3] [%]	Effect [7] [%]	other results
CCOC(=O)ON(Cc1ccc(OCCc2nc(-c3ccccc3)oc2C)cc1)C(N)=O	52	–	–	–	–
Cc1oc(-c2ccccc2)nc1CCOc1ccc(CN(OC(=O)Oc2ccccc2)C(N)=O)cc1	25	–	–	–	–
COC(=O)ON(Cc1ccc(OCCc2nc(-c3ccccc3)oc2C)cc1)C(N)=O	80	90.5	113	164.5	Glucose normalisation [4]: 28%; Glucose normalisation [5]: 77%; Glucose normalisation [6]: 100%
Cc1oc(-c2ccccc2)nc1CCOc1ccc(Cn2oc(=O)[nH]c2=O)cc1	–	109.7	130.6	142.3	Glucose normalisation [4]: 45%; Glucose normalisation [5]: 100%; Glucose normalisation [6]: 97%
CNC(=O)N(O)Cc1ccc(OCCc2nc(-c3ccccc3)oc2C)cc1	25	–	–	–	–
Cc1oc(-c2ccccc2)nc1CCOc1ccc(CN(O)C(N)=O)cc1	–	97	109.8	140.6	–
CCCCCc1ccc(C(=O)N[C@H]2N=C(c3ccccc3)c3ccccc3N(C)C2=O)cc1	50	–	–	–	–
CNC(=O)N(Cc1ccc(OCCc2nc(-c3ccccc3)oc2C)cc1)OC(=O)OC	25	–	–	–	–
CC1(COc2ccc(CC3SC(=O)NC3=O)cc2)CCCCC1 (configuration not stated) [CIGLITAZONE]	–	–	–	151.3	–
